From patent publication US5643884A, “Lupane triterpenoid derivatives” (Glycomed Incorporated, priority 1993, dated 1997)
≈ marks a conversion by molar mass, not a printed value.

Assays:
[1] = system: P-388 lymphocytic leukemia cells; conditions: Choi et al, Planta Medica 1988; cited from earlier work
ornithine decarboxylase = conditions: Yasukawa et al. 1991; cited from earlier work
[2] = system: arachidonic acid (AA) induced ear swelling; assay: arachidonic acid (AA), murine skin inflammation model (ear swelling); assay type: in vivo; conditions: topical, 1 mg, 90 minutes
Procedure: Arachidonic acid is known to induce an inflammatory response and the compounds were tested for their capacity to inhibit the response.
Briefly, the compounds at an appropriate concentration are dissolved in a suitable solvent, and applied to a rodent ear immediately following application of arachidonic acid (AA). A control of AA alone is run. About 90 minutes later a 6 mm disk of each ear is removed and weighed.
For comparison, betulinic acid was also tested. All compounds were dissolved at 50 mg/mL in CHCl3 :CH3 OH (1:1) and […] of each compound was applied two times to the ear, at about a 2 minute interval or the period of time it took for the solvent to evaporate from the ear, immediately following arachidonic acid (AA). A control of AA alone was run. Ninety minutes later a 6 mm disk of each ear was removed and weighed.

E-selectin = assay: cancer cell adhesion to E-selectin (E-selectin chimera binding to fixed LS174T colon carcinoma cells); assay type: cell-based; conditions: lowest concentration from serial two-fold dilutions inhibiting by 50% or more, FIGS. 3 and 4
Procedure: The mixture is rotated briskly on a rotary platform at room temperature for about 30-60 minutes. Particulate matter is removed by centrifugation, and the soluble fraction is transferred onto 96-well microtiter plates containing glutaraldehyde fixed LS174T colon carcinoma cells. This cell line is known to adhere to E-selectin. After 60 minutes at 37° C., plates are washed and E-selectin chimera bound to cells is quantified by addition of pNPP substrate in 1M diethanolamine buffer containing 0.1 mg/ml MgCl2 at pH 9.8. Plates are developed in the dark and read at 405 nm. The IC50 values are calculated and are the lowest concentrations from serial two-fold dilutions (quadruplicate wells at each concentration) which inhibits cell binding by 50% or more relative to the control.
Experiments were conducted to determine the capacity of the invention compounds to interfere with the binding of cancer cells to E-selectin. The compounds are dissolved in dimethylformamide (DMF) prior to being assayed. […] After 60 minutes at 37° C., plates are washed and E-selectin chimera bound to cells is quantified by addition of pNPP substrate in 1M diethanolamine buffer containing 0.1 mg/ml MgCl2 at pH 9.8. Plates are developed in the dark and read at 405 nm. […]

5-lipoxygenase = conditions: Sotomatsu et al. 1959; Inoue et al. 1986; cited from earlier work
P-selectin = assay: inhibition of P-selectin binding to HL-60 cells; assay type: cell-based, human HL-60 cells; conditions: read-out: IC50, P-selectin binding to HL-60 cells; P-selectin 200 ng/ml; 4° C., 1 hour
Procedure: Certain of the invention compounds were tested for their capacity to inhibit P-selectin binding to HL-60 cells, and to a chemical known to bind to P-selectin, 2,3 sLex. The following materials and procedures were used.
P-Selectin Detection Solutions. Goat F(ab')2 anti-human IgG (Fc spec.)-biotin and streptavidin-AP were diluted 1:1000 in 1% BSA-TBS with 1 mM Ca^++. An Elisa assay was utilized to measure P-selectin binding to 2,3 sLex, and P-selectin was added at 300 ng/ml. An Elisa assay was also used to assay for the capacity of the invention compounds to inhibit HL-60 cell binding to P-selectin. HL-60 cells were used, and P-selectin was added at 200 ng/ml.
2,3 sLex was coated at 30 pmoles/well to Probind microtiter plates for Elisa. The glycolipid was added at 50 μl/well in 50% MeOH and allowed to evaporate overnight. Elisa plates and HL-60 assay plates were blocked with 5% BSA-TBS Ca^++ for more than an hour at room temperature. The plates were washed with TBS without Ca^++.
HL-60 cells were harvested by centrifugation, washed with TBS no Ca^++, counted, and the density adjusted to 2×10^6 /ml in 1% BSA-TBS Ca^++.
Briefly, the assays were conducted as follows. […] DMF solutions were added directly to 1% BSA/TBS-Ca for dilutions through 0.5 mM. Lower concentrations were made in serial two-fold dilutions in BSA-TBS. […]

Structure (SMILES): C=C(C)[C@@H]1CC[C@]2(C(=O)OC)CC[C@]3(C)[C@H](CC[C@@H]4[C@@]5(C)CC[C@H](O)C(C)(C)[C@@H]5CC[C@]43C)[C@@H]12 [betulinic acid methyl ester]
- ED50 against P-388 lymphocytic leukemia cells [1]: 6.8 µg/mL (≈ 14.4 µM)

Structure (SMILES): C=C(C)[C@@H]1CC[C@]2(C(=O)O)CC[C@]3(C)[C@H](CC[C@@H]4[C@@]5(C)CC[C@H](O)C(C)(C)[C@@H]5CC[C@]43C)[C@@H]12 [betulinic acid]
- inhibition of ornithine decarboxylase (ornithine decarboxylase): known inhibitor of ornithine decarboxylase
- % Inhibition of Swelling ([2]; first printed value of three separate experiments): ~0%
- % Inhibition of Swelling ([2]; first printed value of three separate experiments, listed as Betulinic acid): 0.0%
- % Inhibition of Swelling ([2]; second printed value of three separate experiments): ~12.2%
- % Inhibition of Swelling ([2]; third printed value of three separate experiments): ~25.9%
- IC50 (E-selectin): 60 µM
- inhibition of enzymes involved in leukotriene biosynthesis, including 5-lipoxygenase (5-lipoxygenase): capacity to inhibit enzymes involved in leukotriene biosynthesis, including 5-lipoxygenase
- IC50 (P-selectin): ~750 µM

Structure (SMILES): C=C(C)[C@@H]1CC[C@]2(C(=O)O)CC[C@]3(C)[C@H](CC[C@@H]4[C@@]5(C)CC[C@H](OC(C)=O)C(C)(C)[C@@H]5CC[C@]43C)[C@@H]12 [betulinic acid 3-monoacetate]
- ED50 against P-388 lymphocytic leukemia cells [1]: 10.5 µg/mL (≈ 21.1 µM)
